Results reported in patent US6586613B1, “Substituted tetrahydronaphthaline and analogous compounds” (Bayer Aktiengellschaft, priority 1997, dated 2003).

Key:
transgenic hCETP mice = assay: In vivo activity in transgenic hCETP mice (lipoproteins and triglycerides in serum); details: 30 ppm via the feed, after one week
Experimental: In vivo Activity in Transgenic hCETP Mice
The substances to be tested were administered to transgenic mice, which were bred in our own laboratory (Dinchuck, Hart, Gonzalez, Karmann, Schmidt, Wirak; BBA (1995), 1295, 301), via the feed. Prior to the beginning of the experiment, blood samples were taken retro-orbitally from the mice to determine cholesterol and triglycerides in the serum. The serum was obtained as described above for hamsters by incubation at 4° C. overnight and subsequent centrifugation at 6000×g. After one week, blood samples were again taken from the mice to determine lipoproteins and triglycerides. The change of the measured parameters are expressed as a change in percent based on the initial value.

[1] = target: T1, cholesterol ester transfer protein (CETP) (Homo sapiens, UniProt P11597); assay: CETP inhibition test (transfer of 3H-cholesterol ester from HDL to biotinylated LDL, SPA); type: biochemical; details: CETP partially purified from human plasma; 37° C., 18 h
T1 construct: CETP is obtained in partially purified form from human plasma by differential centrifugation and column chromatography; from tissue; host or cells: human plasma
T1 sequence (P11597 18-493): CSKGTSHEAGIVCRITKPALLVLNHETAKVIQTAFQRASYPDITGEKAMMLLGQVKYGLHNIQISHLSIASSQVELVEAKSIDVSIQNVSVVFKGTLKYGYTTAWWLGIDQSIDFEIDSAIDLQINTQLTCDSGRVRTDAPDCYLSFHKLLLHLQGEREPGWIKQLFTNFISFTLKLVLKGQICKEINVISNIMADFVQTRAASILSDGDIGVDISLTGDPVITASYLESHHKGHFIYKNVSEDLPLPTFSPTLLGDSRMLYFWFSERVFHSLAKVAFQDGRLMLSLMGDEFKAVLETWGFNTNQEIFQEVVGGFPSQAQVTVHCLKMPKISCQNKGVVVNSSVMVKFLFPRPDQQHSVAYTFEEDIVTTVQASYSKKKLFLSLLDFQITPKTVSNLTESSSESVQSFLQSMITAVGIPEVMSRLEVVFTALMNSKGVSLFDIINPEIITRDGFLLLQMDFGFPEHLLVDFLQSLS
Experimental: CETP is obtained in partially purified form from human plasma by differential centrifugation and column chromatography and used for the test. For this purpose, human plasma is adjusted to a density of 1.21 g per ml using NaBr and centrifuged at 50,000 rpm at 4° C. for 18 h. The bottom fraction (d>1.21 g/ml) is applied to a Sephadex®Phenyl-Sepharose 4B (Pharmacia) column, washed with […]/0.001 M TrisHCl pH 7.4 and subsequently eluted using dist. water. The CETP-active fractions are pooled, dialysed against 50 mM Na-acetate pH 4.5 and applied to a CM-Sepharose® (Pharmacia) column. Elution is subsequently carried out using a linear gradient (0-1 M NaCl). The pooled CETP fractions are dialysed against 10 mM TrisHCl pH 7.4 and subsequently purified further by chromatography over a Mono Q® column (Pharmacia).
Preparation of Radioactively Labelled HDL
50 ml of fresh human EDTA plasma is adjusted to a density of 1.12 using NaBr and centrifuged at 4° C. in a Ty 65 rotor at 50,000 rpm for 18 h. The upper phase is used to obtain cold LDL. […]
To assess the CETP activity, the transfer of ^3H-cholesterol ester from human HD-lipoproteins to biotinylated LD-lipoproteins is measured.
The reaction is terminated by addition of Streptavidin-SPA® beads (Amersham) and the transferred radioactivity is directly measured in a liquid scintillation counter. […]

CETP activity = assay: Ex vivo activity: CETP activity in serum of treated hamsters; details: Syrian gold hamsters; for ED50 for ex vivo activity: CETP activity in serum; for % inhibition at 3 mg/kg: ex vivo CETP activity in serum
Experimental: Ex vivo Activity of the Compounds According to the Invention
Syrian gold hamsters, which have been bred in our own laboratory, are anaesthetized after 24 hours of fasting (0.8 mg/kg of atropine, 0.8 mg/kg of Ketavet® s.c., 30′ later 50 mg/kg of nembutal i.p.). The jugular vein is subsequently exposed and cannulated. The test substance is dissolved in a suitable solvent (usually adalate placebo solution: 60 g of glycerol, 100 ml of H2O, ad 1000 ml PEG-400) and administered to the animals via a PE catheter, which is introduced into the jugular vein. The same volume of solvent without test substance is administered to the control animals. The vein is subsequently tied off and the wound is closed.
The test substances can also be administered p.o. by dissolving the substances in DMSO and suspending them in 0.5% tylose and administering them using a pharyngeal tube. Identical volumes of solvent without test substance are administered to the control animals.
At different intervals—up to 24 hours after the administration—blood samples are taken from the animals by puncture of the retro-orbital venous plexus (approximately 250 μl). Coagulation is completed by incubation at 4° C. overnight, and the samples are subsequently centrifuged at 6000×g for 10 minutes. The CETP activity is determined in the resulting serum using the modified CETP test. The transfer of ^3H-cholesterol ester from HD-lipoproteins to biotinylated LD-lipoproteins is measured as described above for the CETP test.
The reaction is terminated by addition of Streptavidin-SPA® beads (Amersham), and the transferred radioactivity is directly determined in a liquid scintillation counter.
The test protocol is carried out as described under “CETP test”. However, to test the sera, 10 μl of CETP are replaced by 10 μl of the appropriate serum samples. Corresponding incubations of sera of untreated animals serve as controls.
The activity that is transferred in the control experiments using control sera is classified as 100% transfer. The substance concentration at which this transfer is reduced by half is stated as the ED50 value.

Syrian gold hamsters = assay: In vivo activity: HDL increase after oral administration to hamsters; details: perorally
Experimental: In vivo Activity of the Compounds According to the Invention
In experiments for assessing the oral activity on lipoproteins and triglycerides, test substance, dissolved in DMSO and suspended in 0.5% tylose, is administered perorally by means of a pharyngeal tube to Syrian gold hamsters which have been bred in our own laboratory. To determine the CETP activity, blood samples (approximately 250 μl) are taken by retro-orbital puncture prior to the start of the experiment. The test substances are subsequently administered perorally using a pharyngeal tube. Identical volumes of solvent without test substance are administered to the control animals. […]
Coagulation is completed by incubation at 4° C. overnight, and the samples are subsequently centrifuged at 6000×g for 10 minutes. The content of cholesterol and triglycerides in the resulting serum is assessed using modified commercially available enzyme tests (cholesterol enzymatic 14366 Merck, triglycerides 14364 Merck). […]
100 μl of serum dilution and 100 μl of test substance are transferred into 96-well-plates and incubated at room temperature for 10 minutes. The optical density is subsequently determined at a wavelength of 492 nm using an automatic plate reader.
The triglyceride and cholesterol concentrations of the samples are determined with the aid of a standard curve measured in parallel. […]

IC50 [1] | SMILES | HDL, change in percent based on the initial value (transgenic hCETP mice) | LDL, change in percent based on the initial value (transgenic hCETP mice) | Triglycerides, change in percent based on the initial value (transgenic hCETP mice) | ED50 for ex vivo activity (CETP activity) | % inhibition at 3 mg/kg (CETP activity) | % HDL increase (Syrian gold hamsters; dose 2 × 1 mg/kg) | % HDL increase (Syrian gold hamsters; dose 2 × 0.3 mg/kg)
 | CC(C)c1cc2c(c(-c3ccc(F)cc3)c1[C@@H](F)c1ccc(C(F)(F)F)cc1)[C@@H](O)CC1(CCC1)C2 [Example 15, (S)-8-Hydroxy-1-(4-fluorophenyl)-2-[(S)-fluoro-(4-trifluoromethyl-phenyl)-methyl]-3-isopropyl-6-spiro-cyclobutyl-5,6,7,8-tetrahydronaphthalene] | +60% | −18% | −15% |  |  |  | 
3 nM | CC(C)c1cc2c(c(-c3ccc(F)cc3)c1[C@@H](F)c1ccc(C(F)(F)F)cc1)[C@@H](O)CC(C)(C)C2 [Example 25] |  |  |  | <0.3 mg/kg | 83.1% | +15% | 
2.7 nM | O[C@H]1CC2(CCC2)Cc2cc(C3CCCC3)c([C@@H](F)c3ccc(C(F)(F)F)cc3)c(-c3ccc(F)cc3)c21 [Example 31] |  |  |  | <0.3 mg/kg | 72.3% |  | +19%
